“Also recorded” adds a separate entry of the source. Square brackets hold non-standard residues; d marks the D form. Ends that are not written are not given here. Tle = CC(C)(C)[C@H](N)C(=O)O
Columns and labels:
[1] = tested on: monoclonal antibody (DAEFRH-peptide-specific); experiment: Inhibition assay (ELISA): mimotope peptides compete with plate-bound original epitope DAEFRH for recognition by the monoclonal antibody; format: binding, Mice; parameters: key to inhibition (s/m/—): s: strong inhibition; m: moderate inhibition; —: -: no inhibition; conditions: for inhibition of binding of the monoclonal antibody to the original epitope: text to FIGS. 2-9; for Inhibitory capacity of mimotopes: summary Tables 1 and 2 (Examples 2, 3); for inhibition (s/m/—): peptide lists of Example 4
Source text: Mice are vaccinated with the 6mer peptide DAEFRH (natural N-terminal Aβ42 sequence) linked to the protein bovine serum albumin BSA (to make use of the hapten-carrier-effect), emulsified in CFA (first injection) and IFA (booster injections). DAEFRH-peptide-specific, antibody-producing hybridomas are detected by ELISA (DAEFRH-peptide-coated ELISA plates).
FIGS. 2 and 3 describe the results of inhibition assays performed with mimotope peptides included in and obtained from the 5 libraries (as described in WO 2004/062556). The mimotope peptides compete with the original epitope for recognition by the monoclonal antibody. Original epitope and mimotope peptides contain an additional C at the C-terminus for coupling to a protein carrier (if desired).
(§1) After blocking with PBS/BSA 1% (200 μl/well, 12 h, 4° C.), the plates are washed 3× times with PBS/Tween. Then, biotinylated monoclonal antibody (1:2000, 50 μl/well) and peptides (50 μl/well) at 50, 5, 0.5, 0.05, 0.005, and 0.0005 μg/ml are added for 20 min. at 37° C. The plates are washed 3× times with PBS/Tween and are incubated with horseradish peroxidase (HRP)-labeled streptavidin (100 μl/well, 30 min, RT). The plates are washed 5× times with PBS/Tween and are incubated with ABTS+H2O2(0.1% w/v, 10 to 45 min) and the reaction is stopped with citric acid followed by photometric evaluation (wavelength 405 nm).
as §1, with “different concentrations” for “50, 5, 0.5, 0.05, 0.005, and 0.0005 μg/ml”, “ABTS+H2O2 (0.1%” for “ABTS+H2O2(0.1%”
as §1, with “different concentrations” for “50, 5, 0.5, 0.05, 0.005, and 0.0005 μg/ml”

[2] = tested on: monoclonal antibody MV-001; experiment: In vitro binding assay (ELISA), BSA-coupled peptides, parental antibody MV-001; parameters: species or system C57/B16 mice; conditions: Table 1C; peptide-BSA on plate, compared to original epitope
Procedure: Peptides derived from Phage Display as well as variants thereof were coupled to BSA and bound to ELISA plates (1 μM; as indicated in the respective figures) and subsequently incubated with the monoclonal antibody that was used for the screening procedure to analyse binding capacity of identified peptides.
Legend to Table 1C: the binding capacity is coded by the following binding code: 1:X describes the dilution factor of the parental AB

[3] = competition ELISA, plate-bound DAEFRH-C-BSA

Row | Compound | Binding Capacity [2] | also measured
1 | DAEFRH (DAEFRHC) [Peptide 1737, reference compound] |  | inhibition of binding of the monoclonal antibody to the original epitope [1, 3]: can successfully compete
2 | GEMRHQPC [p4702] | 3 (strong binding :>20000) | 
3 | QLFKHSPC [p4747] | 3 (strong binding :>20000) | 
4 | TYFSHSLC [p4718] | 2 (medium binding :4000-20000) | 
5 | SQYFPRPC [p4729] | 2 (medium binding :4000-20000) | 
6 | C[C@H](NC(=O)[C@H](CC(=O)O)NC(=O)[C@H](CCCNC(=N)N)NC(=O)[C@H](Cc1ccccc1)NC(=O)[C@H](CCC(=O)O)NC(=O)[C@H](Cc1c[nH]c2ccccc12)NC(=O)[C@@H](N)CC(=O)O)C(=O)N[C@@H](CS)C(=O)O [Peptide 1241, DWEFRDA] |  | inhibition of binding of the monoclonal antibody to the original epitope [1, 3]: block epitope recognition; Inhibitory capacity of mimotopes [1]: strong
7 | CC[C@H](C)[C@H](NC(=O)[C@H](CCCNC(=N)N)NC(=O)[C@H](CC(C)C)NC(=O)[C@H](CCC(=O)O)NC(=O)[C@H](CCCCN)NC(=O)[C@@H](N)CC(=O)O)C(=O)N[C@@H](CS)C(=O)O [Peptide 3001, DKELRI] |  | inhibition of binding of the monoclonal antibody to the original epitope [1, 3]: block epitope recognition; Inhibitory capacity of mimotopes [1]: strong
8 | TPLMFWHC [p4733] | 1 (weak binding :<4000) | 
9 | GAEFRFT [Peptide 4014] |  | inhibition of binding of the monoclonal antibody to the original epitope [1, 3]: moderately inhibit; inhibition (s/m/—) [1]: m
10 | C[C@@H](O)[C@H](NC(=O)[C@H](CCCNC(=N)N)NC(=O)[C@H](Cc1ccccc1)NC(=O)[C@H](CCC(=O)O)NC(=O)[C@H](Cc1c[nH]c2ccccc12)NC(=O)[C@@H](N)CO)C(=O)N[C@@H](CS)C(=O)O [Peptide 4002, SWEFRT] |  | IC50 (inhibition of monoclonal antibody recognition of DAEFRH) ([1]; competition ELISA, plate-bound DAEFRH-C-BSA, biotinylated mAb 1:2000): less than 0.4 μg/ml; inhibition of binding of the monoclonal antibody to the original epitope [1, 3]: block epitope recognition; Inhibitory capacity of mimotopes [1]: strong
11 | SWFRNP [Peptide 4019] |  | inhibition of binding of the monoclonal antibody to the original epitope [1, 3]: not inhibitory; inhibition (s/m/—) [1]: —
12 | THMEFRRC [p4745] | 3 (strong binding :>20000) | 
13 | NSSELRHC [p4752] | 3 (strong binding :>20000) | 
14 | QVMRHHAC [p4711] | 2 (medium binding :4000-20000) | 
15 | SSSFFPRC [p4708] | 2 (medium binding :4000-20000) | 
16 | SNFRHSVC [p4749] | 3 (strong binding :>20000) | 
17 | EFLRHTLC [p4722] | 3 (strong binding :>20000) | 
18 | VPTSALA [Peptide 4037] |  | inhibition of binding of the monoclonal antibody to the original epitope [1, 3]: not inhibitory; inhibition (s/m/—) [1]: —
19 | SWEFRNP [Peptide 4017] |  | inhibition of binding of the monoclonal antibody to the original epitope [1, 3]: strongly block epitope recognition; inhibition (s/m/—) [1]: s
20 | DTYFPRSC [p4703] | 2 (medium binding :4000-20000) | 

Row | Compound | Binding Capacity [2] | also measured
21 | NELFKHFC [p4727] | 2 (medium binding :4000-20000) | 
22 | APMYFPHC [p4717] | 2 (medium binding :4000-20000) | 
23 | YREFFI (YREFFIC) [Peptide 3003] |  | inhibition of binding of the monoclonal antibody to the original epitope [1, 3]: not able to inhibit; Inhibitory capacity of mimotopes [1]: none
24 | AEFMHSVC [p4739] | 2 (medium binding :4000-20000) | 
25 | YSMRHDAC [p4705] | 2 (medium binding :4000-20000) | 
26 | AEFSHWHC [p4737] | 2 (medium binding :4000-20000) | 
27 | ATPLFRHC [p4723] | 3 (strong binding :>20000) | 
28 | EDWFFWHC [p4709] | 1 (weak binding :<4000) | 
29 | ATYAYWN [Peptide 4038] |  | inhibition of binding of the monoclonal antibody to the original epitope [1, 3]: not inhibitory; inhibition (s/m/—) [1]: —
30 | KKELRI (KKELRIC) [Peptide 1234] |  | inhibition of binding of the monoclonal antibody to the original epitope [1, 3]: hardly inhibitory; Inhibitory capacity of mimotopes [1]: none
31 | DAEFRWP [Peptide 4011] |  | inhibition of binding of the monoclonal antibody to the original epitope [1, 3]: strongly block epitope recognition; inhibition (s/m/—) [1]: s
32 | SQSYFKHC [p4755] | 3 (strong binding :>20000) | 
33 | DKE(tBuGly)R (DKE[Tle]R) [Peptide 4061] |  | inhibition of binding of the monoclonal antibody to the original epitope [1, 3]: not inhibitory; inhibition (s/m/—) [1]: —
34 | DISFRG (DISFRGC) [Peptide 3010] |  | inhibition of binding of the monoclonal antibody to the original epitope [1, 3]: not inhibitory; Inhibitory capacity of mimotopes [1]: none
35 | WHWSWR (WHWSWRC) [Peptide 4004] |  | inhibition of binding of the monoclonal antibody to the original epitope [1, 3]: not able to inhibit; Inhibitory capacity of mimotopes [1]: none
36 | SLMRHSSC [p4721] | 2 (medium binding :4000-20000) | 
37 | QPNLFYHC [p4713] | 1 (weak binding :<4000) | 
38 | YREFRI (YREFRIC) [Peptide 3004] |  | inhibition of binding of the monoclonal antibody to the original epitope [1, 3]: block epitope recognition; also recorded: only inhibitory at a high concentration (50 μg/ml); Inhibitory capacity of mimotopes [1]: weak
39 | NELRHSTC [p4701] | 3 (strong binding :>20000) | 
40 | ATFRHSPC [p4716] | 2 (medium binding :4000-20000) | 

Row | Compound | Binding Capacity [2] | also measured
41 | SAGSFRHC [p4710] | 3 (strong binding :>20000) | 
42 | TSTEMWHC [p4754] | 1 (weak binding :<4000) | 
43 | VELRHSRC [p4704] | 2 (medium binding :4000-20000) | 
44 | TGLMFKHC [p4736] | 2 (medium binding :4000-20000) | 
45 | APIQFRHC [p4750] | 3 (strong binding :>20000) | 
46 | SNSEFRRC [p4743] | 3 (strong binding :>20000) | 
47 | MLPFRHGC [p4731] | 2 (medium binding :4000-20000) | 
48 | HEPLFSHC [p4719] | 1 (weak binding :<4000) | 
49 | QELKRYYC [p4724] | 1 (weak binding :<4000) | 
50 | SEFSHSSC [p4712] | 3 (strong binding :>20000) | 
51 | IGFRHDSC [p4742] | 2 (medium binding :4000-20000) | 
52 | ATFRHSTC [p4735] | 2 (medium binding :4000-20000) | 
53 | SELRHSTC [p4744] | 3 (strong binding :>20000) | 
54 | AANYFPRC [p4706] | 2 (medium binding :4000-20000) | 
55 | LQFKHSTC [p4734] | 2 (medium binding :4000-20000) | 
56 | LHIPFRHC [p4726] | 3 (strong binding :>20000) | 
57 | SAMRHSLC [p4732] | 2 (medium binding :4000-20000) | 
58 | AYFPHTSC [p4751] | 2 (medium binding :4000-20000) | 

Reference: patent US20130287807A1, “COMPOUNDS FOR TREATING SYMPTOMS ASSOCIATED WITH PARKINSON'S DISEASE” (priority 2008, published 2013)
